# Values quoted from earlier work, collected in paper PMC2805559 (Journal of medicinal chemistry, 2009).
# Key:
# [1] = test system: Hsp90-IP6K2 interaction; details: ref [16]
# [2] = test system: tumor; details: ref [1]
Molecule,effect on binding of IP6K2 to Hsp90 [1],anti-tumor activity [2]
"C=CCNC1=C2C[C@@H](C)C[C@H](OC)[C@H](O)[C@@H](C)/C=C(\C)[C@H](OC(N)=O)[C@@H](OC)/C=C\C=C(/C)C(=O)NC(=CC1=O)C2=O [17-AAG, 17-allylamino, 17-demethoxygeldanamycin]",does not affect the binding,–
Sansalvamide A,–,micromolar potency
